Test results from article PMC11310081, “Deep-learning-enabled antibiotic discovery through molecular de-extinction” (Nature Biomedical Engineering, 2024).
≈ marks a conversion by molar mass, not a printed value. Peptide text beside a SMILES is read from it.

Key:
[1] = test system: 11 clinically relevant bacterial pathogens; assay type: cell-based; conditions: Supplementary Dataset 2; against the 11 pathogens tested
Text: (§1) The following Gram-negative bacteria were used in our study: A. baumannii ATCC 19606, E. coli ATCC 11775, E. coli AIC221 (E. coli MG1655 phnE_2::FRT), E. coli AIC222 (E. coli MG1655 pmrA53 phnE_2::FRT (colistin resistant)), K. pneumoniae ATCC 13883, P. aeruginosa PAO1 and P. aeruginosa PA14. The following Gram-positive bacteria were also used in our study: S. aureus ATCC 12600, S. aureus ATCC BAA-1556 (methicillin-resistant strain), E. faecalis ATCC 700802 (vancomycin-resistant strain) and E. faecium ATCC 700221 (vancomycin-resistant strain). Bacteria were grown from frozen stocks and plated on Luria–Bertani (LB) or Pseudomonas isolation agar plates (P. aeruginosa strains) and incubated overnight at 37 °C. After the incubation period, a single colony was transferred to 5 ml of LB medium, and cultures were incubated overnight (16 h) at 37 °C. The following day, an inoculum was prepared by diluting the overnight cultures 1:100 in 5 ml of the respective media and incubating them at 37 °C until bacteria reached logarithmic phase (OD600 = 0.3–0.5).
(§2) The in vitro antimicrobial activity of the peptides was assessed by using the broth microdilution assay. […] Aqueous solutions of the peptides were added to the plate at concentrations ranging from 1 to 64 μmol l^−1. […] The optical density of the plates was measured at 600 nm using a spectrophotometer. All assays were done as three biological replicates.

HEK293T cells = conditions: 24 h
Experimental: HEK293T cells were obtained from the American Type Culture Collection (CRL-3216). The cells were cultured in high-glucose Dulbecco’s modified Eagle’s medium supplemented with 1% penicillin and streptomycin (antibiotics) and 10% fetal bovine serum and grown at 37 °C in a humidified atmosphere containing 5% CO2.
One day before the experiment, an aliquot of 100 μl of the cells at 50,000 cells per ml was seeded into each well of the cell-treated 96-well plates used in the experiment (that is, 5,000 cells per well). […] After the incubation period, we performed the 3-(4,5-dimethylthiazol-2-yl)-2,5-diphenyltetrazolium bromide tetrazolium reduction assay (MTT assay)[53]. The MTT reagent was dissolved at 0.5 mg ml^−1 in medium without phenol red and was used to replace cell culture supernatants containing the peptides (100 μl per well), and the samples were incubated for 4 h at 37 °C in a humidified atmosphere containing 5% CO2 yielding the insoluble formazan salt. The resulting salts were then resuspended in hydrochloric acid (0.04 mol l^−1) in anhydrous isopropanol and quantified by spectrophotometric measurements of absorbance at 570 nm. All assays were done as three biological replicates.
Unless otherwise stated, all assays were performed in three independent biological replicates as indicated in each figure legend and Methods sections. The cytotoxic activities values were estimated using non-linear regression based on the range of concentrations screened and were shown as the values that cause lysis of 50% of the cells in the experiment. Two technical replicates were performed in the cytotoxicity assays within each of the three biological replicates.

E. coli ATCC 11775 = assay type: cell-based, Escherichia coli; conditions: ATCC 11775, 20 h
Text: as §1, §2

E. coli AIC221 = assay type: cell-based, Escherichia coli; conditions: AIC221, 20 h
Text: as §1, §2

K. pneumoniae ATCC 13883 = assay type: cell-based, Klebsiella pneumoniae; conditions: ATCC 13883, 20 h
Text: as §1, §2

A. baumannii ATCC 19606 = assay type: cell-based, Acinetobacter baumannii; conditions: ATCC 19606, 20 h
Text: as §1, §2

[2] = test system: E. faecium ATCC 700221 (vancomycin-resistant strain); assay type: cell-based, Enterococcus faecium; conditions: ATCC 700221, 20 h
Text: as §1, §2

[3] = test system: S. aureus ATCC BAA-1556 (methicillin-resistant strain); assay type: cell-based, Staphylococcus aureus; conditions: ATCC BAA-1556, 20 h
Text: as §1, §2

CC[C@H](C)[C@H](N)C(=O)N[C@@H](CO)C(=O)N[C@@H](CC(C)C)C(=O)N[C@@H](Cc1ccccc1)C(=O)N[C@H](C(=O)N[C@@H](CCCNC(=N)N)C(=O)N1CCC[C@H]1C(=O)N[C@@H](CC(C)C)C(=O)N[C@@H](C)C(=O)N[C@@H](CC(C)C)C(=O)NCC(=O)N[C@H](C(=O)N[C@@H](CCCNC(=N)N)C(=O)N[C@@H](CC(C)C)C(=O)O)C(C)C)[C@@H](C)CC [Psephotellin-1] (H-ISLFIRPLALGVRL-OH; N-terminus and C-terminus assumed)
Active or Inactive [1]: Active
CC50 (HEK293T cells): > 128 µmol/L
Minimal inhibitory concentration, E. coli ATCC11775 (E. coli ATCC 11775): 16 µmol/L (≈ 25.1 µg/mL)
Minimal inhibitory concentration, E. coli AIC221 (E. coli AIC221): 16 µmol/L (≈ 25.1 µg/mL)
Minimal inhibitory concentration, K. pneumoniae ATCC133883 (K. pneumoniae ATCC 13883): 32 µmol/L (≈ 50.2 µg/mL)
Minimal inhibitory concentration, A. baumannii ATCC19606 (A. baumannii ATCC 19606): 32 µmol/L (≈ 50.2 µg/mL)

CC[C@H](C)[C@H](NC(=O)[C@H](CCCCN)NC(=O)[C@H](CO)NC(=O)[C@H](CC(N)=O)NC(=O)[C@H](Cc1ccccc1)NC(=O)[C@H](Cc1c[nH]cn1)NC(=O)[C@H](Cc1ccccc1)NC(=O)[C@@H](N)Cc1c[nH]c2ccccc12)C(=O)N[C@@H](CC(C)C)C(=O)N[C@@H](CC(C)C)C(=O)N[C@@H](CC(C)C)C(=O)N[C@H](C(=O)NCC(=O)N[C@@H](CC(C)C)C(=O)O)[C@@H](C)O [Mylodonin-1] (H-WFHFNSKILLLTGL-OH; N-terminus and C-terminus assumed)
Active or Inactive [1]: Active
CC50 (HEK293T cells): > 128 µmol/L
TI (therapeutic index) (HEK293T cells): > 16
Minimal inhibitory concentration, E. faecium ATCC700221-VRE [2]: 8 µmol/L (≈ 13.5 µg/mL)

CC[C@H](C)[C@H](NC(=O)[C@H](CCCCN)NC(=O)[C@@H](NC(=O)[C@H](Cc1c[nH]c2ccccc12)NC(=O)[C@H](CCCCN)NC(=O)[C@@H](N)CCCCN)[C@@H](C)O)C(=O)N[C@@H](Cc1ccc(O)cc1)C(=O)N[C@@H](CO)C(=O)N1CCC[C@H]1C(=O)N[C@@H](CC(C)C)C(=O)N[C@@H](CO)C(=O)N[C@@H](CC(C)C)C(=O)O [Smilodin-1] (H-KKWTKIYSPLSL-OH; N-terminus and C-terminus assumed)
Active or Inactive [1]: Active
CC50 (HEK293T cells): > 128 µmol/L
TI (therapeutic index) (HEK293T cells): > 2
Minimal inhibitory concentration, K. pneumoniae ATCC133883 (K. pneumoniae ATCC 13883): 64 µmol/L (≈ 93.7 µg/mL)

CC[C@H](C)[C@H](NC(=O)[C@@H](NC(=O)[C@H](CCSC)NC(=O)[C@@H](N)Cc1c[nH]c2ccccc12)[C@@H](C)O)C(=O)N[C@@H](Cc1c[nH]cn1)C(=O)N[C@@H](C)C(=O)N[C@@H](CC(C)C)C(=O)N[C@@H](CCCCN)C(=O)N[C@@H](CC(C)C)C(=O)N[C@@H](CO)C(=O)N[C@@H](CC(C)C)C(=O)N[C@@H](CO)C(=O)N[C@@H](Cc1ccccc1)C(=O)N[C@@H](CCCCN)C(=O)N[C@@H](CC(C)C)C(=O)O [Mammutin-1] (H-WMTIHALKLSLSFKL-OH; N-terminus and C-terminus assumed)
Active or Inactive [1]: Active
CC50 (HEK293T cells): > 128 µmol/L
TI (therapeutic index) (HEK293T cells): > 64
Minimal inhibitory concentration, E. faecium ATCC700221-VRE [2]: 2 µmol/L (≈ 3.58 µg/mL)

CC[C@H](C)[C@H](NC(=O)[C@H](Cc1ccccc1)NC(=O)[C@@H](N)CCCCN)C(=O)N[C@@H](CC(C)C)C(=O)N[C@@H](CC(N)=O)C(=O)N[C@@H](Cc1ccccc1)C(=O)N[C@@H](CCCCN)C(=O)N[C@H](C(=O)N1CCC[C@H]1C(=O)N[C@H](C(=O)N[C@@H](CO)C(=O)N[C@@H](Cc1ccccc1)C(=O)N[C@@H](CCCCN)C(=O)O)[C@@H](C)CC)[C@@H](C)CC [Pinguinusin-1] (H-KFILNFKIPISFK-OH; N-terminus and C-terminus assumed)
Active or Inactive [1]: Active
CC50 (HEK293T cells): > 128 µmol/L
Minimal inhibitory concentration, E. coli ATCC11775 (E. coli ATCC 11775): 16 µmol/L (≈ 25.5 µg/mL)
Minimal inhibitory concentration, E. coli AIC221 (E. coli AIC221): 4 µmol/L (≈ 6.38 µg/mL)
Minimal inhibitory concentration, K. pneumoniae ATCC133883 (K. pneumoniae ATCC 13883): 16 µmol/L (≈ 25.5 µg/mL)
Minimal inhibitory concentration, A. baumannii ATCC19606 (A. baumannii ATCC 19606): 32 µmol/L (≈ 51 µg/mL)

CC[C@H](C)[C@H](NC(=O)[C@H](CC(C)C)NC(=O)[C@H](CCCNC(=N)N)NC(=O)[C@H](Cc1c[nH]c2ccccc12)NC(=O)[C@H](CC(C)C)NC(=O)[C@@H](NC(=O)[C@H](CCCNC(=N)N)NC(=O)[C@H](CCC(N)=O)NC(=O)[C@H](Cc1ccc(O)cc1)NC(=O)[C@H](CC(C)C)NC(=O)[C@@H](N)CCCCN)[C@@H](C)CC)C(=O)N[C@@H](CO)C(=O)N[C@@H](CCC(=O)O)C(=O)N[C@@H](CC(C)C)C(=O)O [Equusin-3] (H-KLYQRILWRLISEL-OH; N-terminus and C-terminus assumed)
Active or Inactive [1]: Active
CC50 (HEK293T cells): > 128 µmol/L
Minimal inhibitory concentration, E. coli ATCC11775 (E. coli ATCC 11775): 16 µmol/L (≈ 29.3 µg/mL)
Minimal inhibitory concentration, E. coli AIC221 (E. coli AIC221): 4 µmol/L (≈ 7.32 µg/mL)
Minimal inhibitory concentration, E. faecium ATCC700221-VRE [2]: 8 µmol/L (≈ 14.6 µg/mL)

CC[C@H](C)[C@H](NC(=O)[C@@H](NC(=O)[C@H](Cc1c[nH]c2ccccc12)NC(=O)[C@H](CCCCN)NC(=O)[C@@H](N)CCCCN)C(C)C)C(=O)N[C@@H](CCCCN)C(=O)N[C@@H](CO)C(=O)N[C@H](C(=O)N[C@H](C(=O)N[C@@H](Cc1ccccc1)C(=O)N[C@@H](Cc1ccccc1)C(=O)N[C@@H](CCCCN)C(=O)O)C(C)C)C(C)C [Hesperelin-2] (H-KKWVIKSVVFFK-OH; N-terminus and C-terminus assumed)
Minimal inhibitory concentration, S. aureus ATCC BAA-1556-MRSA [3]: 16 µmol/L (≈ 24.1 µg/mL)
Active or Inactive [1]: Active
CC50 (HEK293T cells): > 128 µmol/L
Minimal inhibitory concentration, E. coli AIC221 (E. coli AIC221): 8 µmol/L (≈ 12.1 µg/mL)
Minimal inhibitory concentration, K. pneumoniae ATCC133883 (K. pneumoniae ATCC 13883): 32 µmol/L (≈ 48.3 µg/mL)
Minimal inhibitory concentration, E. faecium ATCC700221-VRE [2]: 8 µmol/L (≈ 12.1 µg/mL)
Minimal inhibitory concentration, A. baumannii ATCC19606 (A. baumannii ATCC 19606): 16 µmol/L (≈ 24.1 µg/mL)

CC[C@H](C)[C@H](NC(=O)[C@H](CCCCN)NC(=O)[C@H](CC(C)C)NC(=O)[C@@H](NC(=O)[C@@H](N)CCCCN)[C@@H](C)O)C(=O)N[C@H](C(=O)N[C@@H](CCCNC(=N)N)C(=O)N[C@@H](CC(C)C)C(=O)N[C@@H](CC(C)C)C(=O)N[C@@H](Cc1ccccc1)C(=O)O)[C@@H](C)CC [Mammuthusin-3] (H-KTLKIIRLLF-OH; N-terminus and C-terminus assumed)
Active or Inactive [1]: Active
CC50 (HEK293T cells): > 128 µmol/L
Minimal inhibitory concentration, E. coli AIC221 (E. coli AIC221): 16 µmol/L (≈ 19.9 µg/mL)
Minimal inhibitory concentration, A. baumannii ATCC19606 (A. baumannii ATCC 19606): 32 µmol/L (≈ 39.8 µg/mL)

CC[C@H](C)[C@H](NC(=O)[C@H](Cc1ccccc1)NC(=O)[C@H](CC(N)=O)NC(=O)[C@@H](NC(=O)[C@@H](NC(=O)[C@H](Cc1c[nH]cn1)NC(=O)[C@@H](N)CC(C)C)[C@@H](C)O)[C@@H](C)CC)C(=O)N[C@H](C(=O)N[C@@H](CCCCN)C(=O)N[C@@H](CO)C(=O)N[C@@H](CC(C)C)C(=O)N[C@@H](CC(C)C)C(=O)N[C@@H](CC(C)C)C(=O)O)[C@@H](C)CC [Bisonin-1] (H-LHTINFIIKSLLL-OH; N-terminus and C-terminus assumed)
Active or Inactive [1]: Active
CC50 (HEK293T cells): > 128 µmol/L
TI (therapeutic index) (HEK293T cells): > 8
Minimal inhibitory concentration, E. faecium ATCC700221-VRE [2]: 16 µmol/L (≈ 24.4 µg/mL)

CC[C@H](C)[C@H](NC(=O)[C@H](CCCCN)NC(=O)[C@@H](NC(=O)[C@H](Cc1c[nH]c2ccccc12)NC(=O)[C@@H](N)CCCCN)[C@@H](C)O)C(=O)N[C@@H](Cc1ccc(O)cc1)C(=O)N[C@@H](CC(C)C)C(=O)N1CCC[C@H]1C(=O)N[C@@H](CC(C)C)C(=O)N[C@@H](CC(C)C)C(=O)N[C@@H](CC(C)C)C(=O)N1CCC[C@H]1C(=O)N[C@@H](CC(C)C)C(=O)O [Bisonin-2] (H-KWTKIYLPLLLPL-OH; N-terminus and C-terminus assumed)
Active or Inactive [1]: Active
CC50 (HEK293T cells): > 128 µmol/L
Minimal inhibitory concentration, E. faecium ATCC700221-VRE [2]: 8 µmol/L (≈ 12.8 µg/mL)
Minimal inhibitory concentration, A. baumannii ATCC19606 (A. baumannii ATCC 19606): 8 µmol/L (≈ 12.8 µg/mL)
